Data: PMC9097129, “C-terminal mini-PEGylation of a marine peptide N6 had potent antibacterial and anti-inflammatory properties against Escherichia coli and Salmonella strains in vitro and in vivo” (BMC Microbiology, 2022)

Columns and labels:
[1] = system: S. pullorum CVCC533; experiment: Bacterial translocation, bacterial loads in organs; format: in vivo, mice; parameters: bacteria counted in the organs of mice infected with S. pullorum: unit not given here
Experimental: (§1) The mice (10 mice/group) were challenged with E. coli CVCC195 (1 × 10^9 CFU/mL, 0.2 mL) or S. pullorum CVCC533 (5 × 10^7 CFU/mL, 0.2 mL) by intraperitoneal injection and treated with N6 (4 and 10 μmol/kg) or N6-COOH-miniPEG (4 and 10 μmol/kg). To evaluate bacterial loads in organs, the livers, spleens, kidneys and lungs were removed from the sacrificed mice at 24 h post treatment and homogenized in sterile PBS for E. coli CVCC195 colony counting; similarly, the livers, spleens, kidneys and lungs were removed from the sacrificed mice at 48 h after treatment and homogenized in sterile PBS for S. pullorum CVCC533 colony counting. The uninfected mice served as the blank control (CK); the infected mice treated with PBS were used as the negative control. The mice were sacrificed by neck dislocation under inhaled isoflurane anesthesia (RWD Life Science Co., LTD. Shenzhen, China).

[2] = system: S. pullorum CVCC533; experiment: Time-killing curves; format: cell-based, Salmonella pullorum; settings: 1 × MIC
Experimental: The sample (100 μL) was taken from each flask at 0, 0.5, 1, 2, 4, 6, 8, 10, 12, and 24 h, respectively and serially diluted for colony counting. The group untreated with peptides was a blank control. PMB and CIP were used as the positive control. Similarly, bacterial cells (1 × 10^5 CFU/mL) were incubated with 3/128, 1/32, 3/64, 1/16, 3/32, 1/8, 3/16, 1/4, 3/8, 1/2, 3/4, 1, 2, 3, and 4 × MIC N6 or N6-COOH-miniPEG. The sample was taken from each flask at 24 h and serially diluted for colony counting.

[3] = system: S. pullorum CVCC533; experiment: Organ injury, histopathology (HE); format: in vivo, mice; settings: 48 h and 4 d post-treatment, peptides 10 μmol/kg, HE staining
Experimental: (§2) The mice were treated with N6 (4 and 10 μmol/kg) and N6-COOH-miniPEG (4 and 10 μmol/kg) after intraperitoneal injection of E. coli CVCC195 for 0.5 and 8 h or S. pullorum CVCC533 for 0.5 h as described above. Livers, spleens, kidneys and lungs were removed from the mice at 24 h and 5 d post-treatment after E. coli CVCC195 injection and at 48 h and 4 d post-treatment after S. pullorum CVCC533 injection, respectively, washed in PBS, fixed in 4% paraformaldehyde at 4 °C for 24 h, and stained with hematoxylin and eosin (HE) for histopathology analysis. Finally, the tissue samples were fixed and observed by the light microscope. The uninfected mice served as the blank control (CK); the infected mice being treated with PBS were used as the negative control.

[4] = system: S. pullorum CVCC533; experiment: Mouse peritonitis model, survival; format: in vivo, ICR mice
Experimental: (§3) Similarly, after the intraperitoneal injection with S. pullorum CVCC533 (5 × 10^7 CFU/mL, 0.2 mL), the mice were treated with N6 (8 and 10 μmol/kg), N6-COOH-miniPEG (8 and 10 μmol/kg) or CIP (0.8 and 1 μmol/kg) at 0.5 h, respectively. The mice injected with antibiotics or PBS served as the positive and blank control (CK), respectively. Survival of the mice was recorded daily for 7 d.

[5] = system: E. coli 0111:B4 LPS; experiment: Endotoxemia mouse model, serum cytokines by ELISA; format: in vivo, mice; parameters: levels of TNF-α in sera: unit not given here; settings: for Decrease of serum IL-1β level / Decrease of serum IL-6 level / Decrease of serum IL-10 level / Decrease of serum TNF-α level: LPS 10 mg/kg i.p., peptides 0.25 μmol/kg, PMB 10 μmol/kg, CIP 5 μmol/kg; for levels of IL-1β in sera / levels of TNF-α in sera: ELISA kit, mean of n = 3
Experimental: The mice (10 mice/group) were injected intraperitoneally with N6 and N6-COOH-miniPEG (0.25 μmol/kg), PMB (10 μmol/kg) or CIP (5 μmol/kg) 0.5 h after challenge with 10 mg/kg E. coli 0111:B4 LPS. Blood was collected in a heparin sodium tube at 2 or 8 h after LPS injection and incubated for 30 min at 37 °C and then overnight at 4 °C. After centrifugation at 3,000 rpm for 10 min at 4 °C, serum was collected from supernatant. The cytokine levels of TNF-α, IL-6, IL-1β and IL-10 in serum were detected by the Jiaxuan Biotech. Co. Ltd. (Beijing, China) using an ELISA. […]

[6] = system: E. coli CVCC195; experiment: Mouse peritonitis model, survival; format: in vivo, ICR mice; parameters: survival of mice in E. coli lethal model: unit not given here
Experimental: To evaluate in vivo efficacy of N6 and N6-COOH-miniPEG, the 6-week-old female ICR mice, weight 20 ± 2 g (10 mice/group) were intraperitoneally injected with E. coli CVCC195 or S. pullorum CVCC533 at a concentration of absolute lethal dose (LD100). After the intraperitoneal injection with E. coli CVCC195 (1 × 10^9 CFU/mL, 0.2 mL), the mice were treated with N6 (2 and 4 μmol/kg), N6-COOH-miniPEG (2 and 4 μmol/kg) or PMB (0.125 and 0.25 μmol/kg) at 0.5 h and 8 h, respectively.
as §3

[7] = system: E. coli CVCC195; experiment: Organ injury, histopathology (HE); format: in vivo, mice; settings: 24 h and 5 d post-treatment, peptides 4 μmol/kg, HE staining
Experimental: as §2

[8] = system: E. coli CVCC195; experiment: Bacterial translocation, bacterial loads in organs; format: in vivo, mice; parameters: unit not given here; settings: mean of n = 3
Experimental: as §1

[9] = peptides 10 μmol/kg, CIP 1 μmol/kg, 48 h after treatment, versus untreated infected mice

Compound: O=C(O)c1cn(C2CC2)c2cc(N3CCNCC3)c(F)cc2c1=O [CIP]
- bacteria counted in the organs of mice infected with S. pullorum ([1]; Kidney, mean): 3.299
- bacteria counted in the organs of mice infected with S. pullorum ([1]; Liver, replicate 1): 3.641
- bacteria counted in the organs of mice infected with S. pullorum ([1]; Liver, replicate 2): 4.221
- bacteria counted in the organs of mice infected with S. pullorum ([1]; Lung, mean): 3.527
- bacteria counted in the organs of mice infected with S. pullorum ([1]; Spleen, replicate 1): 4.255
- bacteria counted in the organs of mice infected with S. pullorum ([1]; Spleen, replicate 2): 4.222
- bacteria counted in the organs of mice infected with S. pullorum ([1]; Spleen, replicate 3): 3.905
- Decrease of bacterial count in kidneys [1, 9]: 40.20%
- Decrease of bacterial count in livers [1, 9]: 31.66%
- Decrease of bacterial count in lungs [1, 9]: 43.65%
- Decrease of bacterial count in spleens [1, 9]: 47.75%
- Time to kill 99.9% of cells [2]: ≤ 6 h
- Organ injury, histopathology [3]: apparently less damage of liver, spleen, kidney and lung
- survival of mice in S. pullorum lethal model ([4]; 0.8 μmol/kg, day 0): 100
- survival of mice in S. pullorum lethal model ([4]; 0.8 μmol/kg, day 1): 100
- survival of mice in S. pullorum lethal model ([4]; 0.8 μmol/kg, day 2): 100
- survival of mice in S. pullorum lethal model ([4]; 0.8 μmol/kg, day 3): 100
- survival of mice in S. pullorum lethal model ([4]; 0.8 μmol/kg, day 4): 83.3333
- survival of mice in S. pullorum lethal model ([4]; 0.8 μmol/kg, day 5): 83.3333
- survival of mice in S. pullorum lethal model ([4]; 0.8 μmol/kg, day 6): 83.3333
- survival of mice in S. pullorum lethal model ([4]; 0.8 μmol/kg, day 7): 83.3333
- Survival rate of mice ([4]; 1 μmol/kg i.p. at 0.5 h (legend of Fig. 6: 0.5 and 8 h), 7 d): 100%
- survival of mice in S. pullorum lethal model ([4]; 1 μmol/kg, day 0): 100
- survival of mice in S. pullorum lethal model ([4]; 1 μmol/kg, day 1): 100
- survival of mice in S. pullorum lethal model ([4]; 1 μmol/kg, day 2): 100
- survival of mice in S. pullorum lethal model ([4]; 1 μmol/kg, day 3): 100
- survival of mice in S. pullorum lethal model ([4]; 1 μmol/kg, day 4): 100
- survival of mice in S. pullorum lethal model ([4]; 1 μmol/kg, day 5): 100
- survival of mice in S. pullorum lethal model ([4]; 1 μmol/kg, day 6): 100
- survival of mice in S. pullorum lethal model ([4]; 1 μmol/kg, day 7): 100
- Decrease of serum IL-1β level ([5]; 2 h): 9.13%
- Decrease of serum IL-6 level ([5]; 2 h): 30.83%
- Decrease of serum IL-10 level ([5]; 2 h): 15.33%
- Decrease of serum TNF-α level ([5]; 2 h): 1.78%
- levels of IL-1β in sera ([5]; 2 h after treatment): 87.9333
- levels of TNF-α in sera ([5]; 2 h after treatment): 153
- Decrease of serum IL-1β level ([5]; 8 h): 0.07%
- Decrease of serum IL-6 level ([5]; 8 h): -0.24%
- Decrease of serum IL-10 level ([5]; 8 h): 0.13%
- Decrease of serum TNF-α level ([5]; 8 h): -0.37%
- levels of IL-1β in sera ([5]; 8 h after treatment): 171.167
- levels of TNF-α in sera ([5]; 8 h after treatment): 559.733

Compound: polymyxin B [PMB]
- survival of mice in E. coli lethal model ([6]; 0.125 μmol/kg, day 0): 100
- survival of mice in E. coli lethal model ([6]; 0.125 μmol/kg, day 1): 80
- survival of mice in E. coli lethal model ([6]; 0.125 μmol/kg, day 2): 60
- survival of mice in E. coli lethal model ([6]; 0.125 μmol/kg, day 3): 30
- survival of mice in E. coli lethal model ([6]; 0.125 μmol/kg, day 4): 30
- survival of mice in E. coli lethal model ([6]; 0.125 μmol/kg, day 5): 30
- survival of mice in E. coli lethal model ([6]; 0.125 μmol/kg, day 6): 30
- survival of mice in E. coli lethal model ([6]; 0.125 μmol/kg, day 7): 30
- Survival rate of mice ([6]; 0.25 μmol/kg i.p. at 0.5 h and 8 h, 7 d): 100%
- survival of mice in E. coli lethal model ([6]; 0.25 μmol/kg, day 0): 100
- survival of mice in E. coli lethal model ([6]; 0.25 μmol/kg, day 1): 100
- survival of mice in E. coli lethal model ([6]; 0.25 μmol/kg, day 2): 100
- survival of mice in E. coli lethal model ([6]; 0.25 μmol/kg, day 3): 100
- survival of mice in E. coli lethal model ([6]; 0.25 μmol/kg, day 4): 100
- survival of mice in E. coli lethal model ([6]; 0.25 μmol/kg, day 5): 100
- survival of mice in E. coli lethal model ([6]; 0.25 μmol/kg, day 6): 100
- survival of mice in E. coli lethal model ([6]; 0.25 μmol/kg, day 7): 100
- Organ injury, histopathology [7]: apparently less damage of liver, spleen, kidney and lung
- bacteria counted in the organs of mice infected with E. coli ([8]; Kidney): 3.851
- bacteria counted in the organs of mice infected with E. coli ([8]; Liver): 3.743
- bacteria counted in the organs of mice infected with E. coli ([8]; Lung): 3.796
- bacteria counted in the organs of mice infected with E. coli ([8]; Spleen): 3.605
- levels of TNF-α in sera ([5]; 2 h after treatment): 99.8667
- levels of TNF-α in sera ([5]; 8 h after treatment): 239.767
